Structures are written as SMILES.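 Five compound concentrations were applied to cells in 96-well plates for 48 hours; endpoints were derived by simple linear interpolation of the resulting dose-response curve. Definition used: TGI = concentration required for complete inhibition of growth.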

Some test systems named below: CCRF-CEM leukemia; COLO 205 colon; EKVX NSCLC; HL-60(TB) leukemia; HOP-62 NSCLC; HS 578T breast; KM12 colon; MALME-3M melanoma; NCI/ADR-RES ovarian; OVCAR-5 ovarian; SF-539 CNS; SK-MEL-28 melanoma; SK-OV-3 ovarian; SN12C renal; UACC-257 melanoma; UACC-62 melanoma; HOP-92 NSCLC.
Common to all, as to test: inhibition of tumour cell growth, NCI panel, 48 h

Take `S=C(c1c[nH]c2ccccc12)N1CCN(c2ccccc2)CC1`: the TGI is greater than 100 µM in the test on CCRF-CEM leukemia; greater than 100 µM in the test on COLO 205 colon; greater than 100 µM in the test with EKVX NSCLC; greater than 100 µM in the test with HL-60(TB) leukemia; greater than 100 µM with HOP-62 NSCLC; 38.3 µM in the test on HS 578T breast. Also, the TGI in the test with KM12 colon is greater than 100 µM; in the test on MALME-3M melanoma, 87.4 µM; in the test on NCI/ADR-RES ovarian, greater than 100 µM; with OVCAR-5 ovarian it was greater than 100 µM; with SF-539 CNS, greater than 100 µM; in the test with SK-MEL-28 melanoma it was greater than 100 µM. The TGI in the test on SK-OV-3 ovarian was greater than 100 µM; in the test on SN12C renal, 59.9 µM; with UACC-257 melanoma, greater than 100 µM; in the test with UACC-62 melanoma, greater than 100 µM.

Regarding `COc1ccc(Nc2nc(N)c(C(=O)c3ccccc3)s2)cc1`, the TGI was greater than 80.6 µM with CCRF-CEM leukemia; 0.333 µM in the test with COLO 205 colon; 58.2 µM with EKVX NSCLC; 0.271 µM in the test with HL-60(TB) leukemia; greater than 100 µM with HOP-62 NSCLC; greater than 92.7 µM in the test on HOP-92 NSCLC. For the same compound, the TGI in the test on HS 578T breast was 3.18 µM; in the test with KM12 colon, greater than 19.8 µM; in the test with MALME-3M melanoma, greater than 100 µM; in the test with OVCAR-5 ovarian it was greater than 78.4 µM; with SF-539 CNS, 0.0327 µM; in the test with SK-MEL-28 melanoma, greater than 100 µM. Moreover, the TGI was greater than 100 µM with SK-OV-3 ovarian, 66.3 µM in the test on SN12C renal, greater than 100 µM in the test with UACC-257 melanoma and greater than 100 µM in the test on UACC-62 melanoma.

`CC1(C)C[C@H](O)[C@H](O)[C@]23C(=O)O[C@H](O)[C@H]2C(C=O)=CC[C@@H]13`: the TGI in the test on CCRF-CEM leukemia, in the test with COLO 205 colon, in the test with EKVX NSCLC, in the test on HL-60(TB) leukemia, with HOP-62 NSCLC and with HS 578T breast was greater than 100 µM throughout. Further, the TGI with KM12 colon, in the test on MALME-3M melanoma, with NCI/ADR-RES ovarian, in the test with SF-539 CNS, in the test with SK-MEL-28 melanoma and with SN12C renal was greater than 100 µM each time. Besides, the TGI in the test on UACC-257 melanoma and with UACC-62 melanoma was greater than 100 µM each time.

Take `COc1cc(/C=C/C(=O)N[C@@H]2C(=O)N3[C@@H]2SC(C)(C)[C@@H]3C(=O)O)cc(OC)c1OC`: the TGI with CCRF-CEM leukemia, in the test on COLO 205 colon, in the test on EKVX NSCLC, with HL-60(TB) leukemia, in the test with HOP-92 NSCLC and in the test on HS 578T breast was greater than 100 µM throughout. Besides, the TGI with KM12 colon, with NCI/ADR-RES ovarian, with OVCAR-5 ovarian, in the test on SF-539 CNS, in the test with SK-MEL-28 melanoma and in the test with SK-OV-3 ovarian was greater than 100 µM throughout. The TGI in the test with SN12C renal, in the test on UACC-257 melanoma and with UACC-62 melanoma was greater than 100 µM each time.

For `COc1cc2c(cc1OC)C(Cc1ccccc1CCCl)=NCC2`, the TGI is greater than 100 µM in the test on CCRF-CEM leukemia; greater than 100 µM with COLO 205 colon; greater than 100 µM in the test with EKVX NSCLC; 97.2 µM with HL-60(TB) leukemia; greater than 100 µM in the test with HOP-62 NSCLC; greater than 100 µM in the test on HOP-92 NSCLC. The TGI in the test on HS 578T breast was greater than 100 µM; in the test with KM12 colon, greater than 100 µM; in the test on NCI/ADR-RES ovarian it was greater than 100 µM; in the test with OVCAR-5 ovarian, greater than 100 µM; in the test with SF-539 CNS it was 48.6 µM; in the test on SK-MEL-28 melanoma, greater than 100 µM. Moreover, the TGI with SK-OV-3 ovarian, in the test with SN12C renal, in the test on UACC-257 melanoma and in the test on UACC-62 melanoma was greater than 100 µM each time.

For `CC1=C(C(=O)NCC(C)O)CC(C(=O)NCC(C)O)=C(C)N1` (stereo not drawn), the TGI with CCRF-CEM leukemia, with COLO 205 colon, in the test on EKVX NSCLC, with HL-60(TB) leukemia, in the test with HOP-62 NSCLC and with HOP-92 NSCLC was greater than 100 µM each time. The TGI in the test on HS 578T breast, in the test with KM12 colon, in the test on NCI/ADR-RES ovarian, in the test on OVCAR-5 ovarian, in the test with SF-539 CNS and in the test on SK-MEL-28 melanoma was greater than 100 µM throughout. The TGI with SK-OV-3 ovarian, with SN12C renal, with UACC-257 melanoma and in the test with UACC-62 melanoma was greater than 100 µM throughout.

Regarding `CC(NC(=O)C(N)CC(=O)O)NC(=O)N1CCOCC1` (stereo not drawn), the TGI in the test with CCRF-CEM leukemia, in the test with COLO 205 colon, in the test on EKVX NSCLC, with HOP-62 NSCLC, with HS 578T breast and in the test with KM12 colon was greater than 100 µM in each case. In addition, the TGI in the test with MALME-3M melanoma, with NCI/ADR-RES ovarian, in the test on OVCAR-5 ovarian, in the test on SF-539 CNS, with SK-MEL-28 melanoma and in the test on SK-OV-3 ovarian was greater than 100 µM in each case. Moreover, the TGI in the test with SN12C renal, with UACC-257 melanoma and in the test on UACC-62 melanoma was greater than 100 µM each time.

With `OCCN=C1c2ccccc2C2C(c3ccccc31)C1c3ccccc3C(=NCCO)c3ccccc3C21` (stereo not drawn), the TGI was 35.9 µM in the test with CCRF-CEM leukemia; 44.4 µM in the test on COLO 205 colon; greater than 100 µM in the test with EKVX NSCLC; 47.2 µM in the test with HL-60(TB) leukemia; 39.4 µM in the test on HOP-62 NSCLC; 45.7 µM in the test with HS 578T breast. Also, the TGI in the test with KM12 colon turned out to be 44 µM; in the test on MALME-3M melanoma it was 75.7 µM; with NCI/ADR-RES ovarian, 72.6 µM; in the test with OVCAR-5 ovarian it was 60.7 µM; with SF-539 CNS, 36.5 µM; in the test with SK-MEL-28 melanoma, 36.4 µM. For the same compound, the TGI in the test with SK-OV-3 ovarian is 61.5 µM; in the test on SN12C renal, 55.8 µM; in the test on UACC-257 melanoma it was 69.2 µM; with UACC-62 melanoma it was 37.5 µM.

Regarding `O=c1[nH]c(Nc2cccc(Br)c2)nc2nc[nH]c12`, the TGI in the test with CCRF-CEM leukemia, in the test with COLO 205 colon, with EKVX NSCLC, in the test on HL-60(TB) leukemia, in the test on HOP-92 NSCLC and with HS 578T breast was greater than 100 µM throughout. In addition, the TGI with KM12 colon, with MALME-3M melanoma, with NCI/ADR-RES ovarian, in the test on OVCAR-5 ovarian, in the test on SK-MEL-28 melanoma and with SK-OV-3 ovarian was greater than 100 µM in each case. Besides, the TGI in the test with UACC-257 melanoma and in the test on UACC-62 melanoma was greater than 100 µM throughout.
